Reference: patent US20260315452A1, “PROTEASE INHIBITORS AND USES THEREOF” (priority 2023, published 2026)
Structures can show the parent of a compound that is named as a salt.

How the values were obtained:
SARS-CoV-2 3CLpro = SARS-CoV-2 3CLpro (Severe acute respiratory syndrome coronavirus 2, UniProt P0DTD1); assay: biochemical; settings: inhibition of SARS-CoV-2 3CLpro; 15 nM 3CLpro, 25 μM fluorogenic substrate, 37° C.; read-out: Inhibitory Activity (IC50)
SARS-CoV-2 = assay: Anti-SARS-CoV-2 activity in A549 cells expressing the human ACE2 receptor (inhibition of SARS-CoV-2 replication); format: cell-based; settings: for EC50: Severe acute respiratory syndrome coronavirus 2, A549-ACE2, 24 h, read-out: Antiviral Activity (EC50)

| Compound | IC50 (SARS-CoV-2 3CLpro) | EC50 (SARS-CoV-2) | antiviral potency in A549 cells in comparison with compound Ref-2 (SARS-CoV-2; A549 cells, versus Ref-2 (FIG. 7)) |
| --- | --- | --- | --- |
| CN1CC[C@@H](NC(=O)c2cc(Br)cc([N+](=O)[O-])c2N[C@H]2CN(C(=O)c3cncc4ccccc34)CCC2(F)F)C1 [Compound 45, 5-bromo-2-(((S)-4,4-difluoro-1-(isoquinoline-4-carbonyl)piperidin-3-yl)amino)-N-((R)-1-methylpyrrolidin-3-yl)-3-nitrobenzamide hydrochloride] | < 0.1 µM | < 0.1 µM |  |
| O=C(N[C@H]1CCOC1)c1cc(Br)cc([N+](=O)[O-])c1N[C@H]1CN(C(=O)c2cncc3ccccc23)CCC1(F)F [Compound 149, 5-bromo-2-(((S)-4,4-difluoro-1-(isoquinoline-4-carbonyl)piperidin-3-yl)amino)-3-nitro-N-((S)-tetrahydrofuran-3-yl)benzamide] | < 0.1 µM | < 0.1 µM |  |
| CNC(=O)c1cc(Br)cc([N+](=O)[O-])c1N[C@H]1CN(C(=O)c2cncc3ccccc23)CC12CC2 [Compound 74, (R)-5-bromo-2-((5-(isoquinoline-4-carbonyl)-5-azaspiro[2,4]heptan-7-yl)amino)-N-methyl-3-nitrobenzamide] | 0.1 to 1 µM | < 0.1 µM |  |
| CNC(=O)c1cc(Br)cc([N+](=O)[O-])c1N1CCC2(CCN(C(=O)c3cncc4ccccc34)C2)C1 (centres unmarked) [Compound 66, 5-bromo-2-(7-(isoquinoline-4-carbonyl)-2,7-diazaspiro[4.4]nonan-2-yl)-N-methyl-3-nitrobenzamide] | 0.1 to 1 µM | 0.1 to 1 µM |  |
| C=CCNC(=O)c1cc(Cl)cc([N+](=O)[O-])c1N[C@H]1CN(C(=O)c2cncc3ccccc23)CCC1(F)F [Compound 42, (S)-N-allyl-5-chloro-2-((4,4-difluoro-1-(isoquinoline-4-carbonyl)piperidin-3-yl)amino)-3-nitrobenzamide] | < 0.1 µM | < 0.1 µM |  |
| O=C(NC1CC(F)(F)C1)c1cc(Br)cc(C(F)(F)F)c1N[C@H]1CN(C(=O)c2cncc3ccccc23)CCC1(F)F [Compound 144, (S)-5-bromo-2-((4,4-difluoro-1-(isoquinoline-4-carbonyl)piperidin-3-yl)amino)-N-(3,3-difluorocyclobutyl)-3-(trifluoromethyl)benzamide] | < 0.1 µM | < 0.1 µM |  |
| O=C(NC1CC1)c1cc(Cl)cc(C(F)(F)F)c1N[C@H]1CN(C(=O)c2cncc3ccccc23)CCC1(F)F [Compound 83, (S)-5-chloro-N-cyclopropyl-2-((4,4-difluoro-1-(isoquinoline-4-carbonyl)piperidin-3-yl)amino)-3-(trifluoromethyl)benzamide] | < 0.1 µM | < 0.1 µM |  |
| CNC(=O)c1cc(Br)cc(C(F)(F)F)c1N[C@H]1CN(C(=O)c2cncc3ccccc23)CCC1(F)F [Compound 35, (S)-5-bromo-2-((4,4-difluoro-1-(isoquinoline-4-carbonyl)piperidin-3-yl)amino)-N-methyl-3-(trifluoromethyl)benzamide] | < 0.1 µM | < 0.1 µM |  |
| Cn1cc(NC(=O)c2cc(Cl)cc([N+](=O)[O-])c2N[C@H]2CN(C(=O)c3cncc4ccccc34)CCC2(F)F)cn1 [Compound 41, (S)-5-chloro-2-((4,4-difluoro-1-(isoquinoline-4-carbonyl)piperidin-3-yl)amino)-N-(1-methyl-1H-pyrazol-4-yl)-3-nitrobenzamide] | < 0.1 µM | < 0.1 µM | better antiviral potency |
| O=C(N[C@H]1CCCC[C@H]1Nc1c(C(=O)N2CC(F)(F)C2)cc(Br)cc1[N+](=O)[O-])c1cncc2ccccc12 [Compound 14, N-((1S, 2R)-2-((4-bromo-2-(3,3-difluoroazetidine-1-carbonyl)-6-nitrophenyl)amino)cyclohexyl)isoquinoline-4-carboxamide] | 0.1 to 1 µM | 0.1 to 1 µM |  |
| O=C(NCC(F)F)c1cc(Br)cc([N+](=O)[O-])c1N[C@@H]1CCCC[C@@H]1NC(=O)c1cncc2ccccc12 [Compound 61, N-((IS, 2R)-2-((4-bromo-2-((2,2-difluoroethyl)carbamoyl)-6-nitrophenyl)amino)cyclohexyl)isoquinoline-4-carboxamide] | < 0.1 µM | < 0.1 µM |  |
| O=C(N[C@@H]1CCNC1)c1cc(Br)cc([N+](=O)[O-])c1N[C@H]1CN(C(=O)c2cncc3ccccc23)CCC1(F)F [Compound 46, 5-bromo-2-(((S)-4,4-difluoro-1-(isoquinoline-4-carbonyl)piperidin-3-yl)amino)-3-nitro-N-((R)-pyrrolidin-3-yl) benzamide] | < 0.1 µM | < 0.1 µM |  |
| O=C(NC1CC(F)(F)C1)c1cc(Br)cc([N+](=O)[O-])c1N[C@H]1CN(C(=O)c2cncc3ccccc23)CCC1(F)F [Compound 33, (S)-5-bromo-2-((4,4-difluoro-1-(isoquinoline-4-carbonyl)piperidin-3-yl)amino)-N-(3,3-difluorocyclobutyl)-3-nitrobenzamide] | < 0.1 µM | < 0.1 µM |  |
| CN(C)C1CN(C(=O)c2cc(Cl)cc([N+](=O)[O-])c2N[C@H]2CN(C(=O)c3cncc4ccccc34)CCC2(F)F)C1 [Compound 94, (S)-(5-chloro-2-((4,4-difluoro-1-(isoquinoline-4-carbonyl)piperidin-3-yl)amino)-3-nitrophenyl)(3-(dimethylamino)azetidin-1-yl)methanone hydrochloride] | < 0.1 µM | < 0.1 µM |  |
| O=C(c1cc(Br)cc([N+](=O)[O-])c1N[C@H]1CN(C(=O)c2cncc3ccccc23)CCC1(F)F)N1CC(F)(F)C1 [Compound 36, (S)-(5-bromo-2-((4,4-difluoro-1-(isoquinoline-4-carbonyl)piperidin-3-yl)amino)-3-nitrophenyl)(3,3-difluoroazetidin-1-yl)methanone] | < 0.1 µM | < 0.1 µM |  |
| C[C@@H](NC(=O)c1cc(Br)cc([N+](=O)[O-])c1N[C@@H]1CCCN(C(=O)c2cncc3ccccc23)C1)C(F)(F)F [Compound 81, 5-bromo-2-(((R)-1-(isoquinoline-4-carbonyl)piperidin-3-yl)amino)-3-nitro-N-((R)-1,1,1-trifluoropropan-2-yl)benzamide] | < 0.1 µM | < 0.1 µM |  |
| COC1CN(C(=O)c2cc(Cl)cc([N+](=O)[O-])c2N[C@H]2CN(C(=O)c3cncc4ccccc34)CCC2(F)F)C1 [Compound 44, (S)-(5-chloro-2-((4,4-difluoro-1-(isoquinoline-4-carbonyl)piperidin-3-yl)amino)-3-nitrophenyl)(3-methoxyazetidin-1-yl)methanone] | < 0.1 µM | < 0.1 µM |  |
| CNC(=O)c1cc(Br)cc([N+](=O)[O-])c1N1CC(F)(F)C2(CCN(C(=O)c3cncc4ccccc34)C2)C1 (centres unmarked) [Compound 67, 5-bromo-2-(4,4-difluoro-7-(isoquinoline-4-carbonyl)-2,7-diazaspiro[4.4]nonan-2-yl)-N-methyl-3-nitrobenzamide] | 0.1 to 1 µM | 0.1 to 1 µM |  |
| O=C(c1cc(Br)cc([N+](=O)[O-])c1N[C@H]1CN(C(=O)c2cncc3ccccc23)CCC1(F)F)N1CC(O)C1 [Compound 139, (S)-(5-bromo-2-((4,4-difluoro-1-(isoquinoline-4-carbonyl)piperidin-3-yl)amino)-3-nitrophenyl)(3-hydroxyazetidin-1-yl)methanone] | < 0.1 µM | < 0.1 µM |  |
| O=C(NC1CC(F)(F)C1)c1cc(Br)cc([N+](=O)[O-])c1N1CCC2(CN(C(=O)c3cncc4ccccc34)CC2(F)F)C1 (centres unmarked) [Compound 27, 5-bromo-2-(9,9-difluoro-7-(isoquinoline-4-carbonyl)-2,7-diazaspiro[4. 4]nonan-2-yl)-N-(3,3-difluorocyclobutyl)-3-nitrobenzamide] | < 0.1 µM | 0.1 to 1 µM |  |
| O=C(NC1(C(F)(F)F)CC1)c1cc(Br)cc([N+](=O)[O-])c1N[C@@H]1CCCC[C@@H]1NC(=O)c1cncc2ccccc12 [Compound 16, N-((1S, 2R)-2-((4-bromo-2-nitro-6-((1-(trifluoromethyl)cyclopropyl)carbamoyl)phenyl)amino)cyclohexyl)isoquinoline-4-carboxamide] | 0.1 to 1 µM | 1 to 10 µM |  |
| CNC(=O)c1cc(Br)cc([N+](=O)[O-])c1NC1CN(C(=O)c2cncc3ccccc23)CC1(F)F (centres unmarked) [Compound 18, 5-bromo-2-((4,4-difluoro-1-(isoquinoline-4-carbonyl)pyrrolidin-3-yl)amino)-N-methyl-3-nitrobenzamide] | 0.1 to 1 µM | 0.1 to 1 µM |  |
| CNC(=O)c1cc(Cl)cc([N+](=O)[O-])c1N[C@H]1CN(C(=O)c2cncc3ccccc23)CC[C@@H]1F [Compound 96, 5-chloro-2-(((3S, 4S)-4-fluoro-1-(isoquinoline-4-carbonyl)piperidin-3-yl)amino)-N-methyl-3-nitrobenzamide] | < 0.1 µM | < 0.1 µM |  |
| O=C(NCC(F)(F)F)c1cc(Br)cc([N+](=O)[O-])c1N[C@@H]1CCCC[C@@H]1NC(=O)c1cncc2ccccc12 [Compound 59, N-((1S, 2R)-2-((4-bromo-2-nitro-6-((2,2,2-trifluoroethyl)carbamoyl)phenyl)amino)cyclohexyl)isoquinoline-4-carboxamide] | 0.1 to 1 µM | 0.1 to 1 µM |  |
| CNC(=O)c1cc(Br)cc([N+](=O)[O-])c1N[C@H]1CN(C(=O)c2cncc3ccccc23)CC(F)(F)C1 [Compound 62, (R)-5-bromo-2-((5,5-difluoro-1-(isoquinoline-4-carbonyl)piperidin-3-yl)amino)-N-methyl-3-nitrobenzamide] | 0.1 to 1 µM | 0.1 to 1 µM |  |
| O=C(c1cc(Cl)cc([N+](=O)[O-])c1N[C@H]1CN(C(=O)c2cncc3ccccc23)CCC1(F)F)N1CC(F)(F)C1 [Compound 143, (S)-(5-chloro-2-((4,4-difluoro-1-(isoquinoline-4-carbonyl)piperidin-3-yl)amino)-3-nitrophenyl)(3,3-difluoroazetidin-1-yl)methanone] | < 0.1 µM | < 0.1 µM |  |
